Tests used:
MIP/SP cells [1] = assay: Quantitation of apoptosis by Annexin V labeling and flow cytometry, SPARC-overexpressing cells versus control; assay type: cell-based; conditions: 12-hr exposure, p<0.05
Method: (§1) Quantitation of Apoptosis—For the TUNEL assay, cells were plated onto glass coverslips in 6-well plates at 250,000 cells/plate overnight prior to any induction study 24 hours later. For the assessment of apoptosis following exogenous SPARC (Haematologic Technologies Inc), cells were incubated with SPARC 5 μg/ml for 24 hrs followed by a 12-hr exposure to 5-FU 1000 μM. Cells were then processed for labeling by Apoptosis Detection Kit (Promega) according to the manufacturer's instructions. For quantitation of apoptosis, cells were plated at 250,000 cells/plate in 6-well plates overnight, followed by 12-hr incubation with the following chemotherapy agents: 5-FU 1000 μM, CPT-11 200 μM, cisplatin 100p4, and etoposide 10 μM. Cells were collected by using a nonenzymatic cell dissociation medium (Sigma), washed with phosphate-buffered saline and subsequently stained for Annexin V and propidium iodide using an Apoptosis detection kit (R & D Research) according to the manufacturer's protocol. The proportion of cells labeled with Annexin V and propidium iodide was analyzed by XL Flow Cytometry Analyzer. Data was collected from 100,000 events.
(§2) Transfection and Selection of Clone—The SPARC cDNA was cloned into pcDNA3.1 expression vector. Transfections were performed with 2.0 μg of the gene/expression vector construct using the polyethylenimine method of Boussiff et al. (1995) with minor modifications (Tai et al., 2002). After transfection, cells were washed with phosphate-buffered saline (PBS, pH 7.4) and maintained in culture medium for 24 hours, followed by a change to an appropriate selection medium containing 1% Zeocin. Cells were selected based on Zeocin resistance and individual colonies and clones from these colonies were then propagated for further verification. Stably transduced clones (MIP/SP) were screened for SPARC mRNA expression by reverse-transcription polymerase chain reaction (RT-PCR) analysis. MIP/SP clones with the highest expression of SPARC mRNA (by RT-PCR) and protein (by Western blot) were selected for subsequent in-vitro and in-vivo studies. Control cell lines used for this study included MIP101 cells stably transduced with pcDNA3.1 empty vector only (MLP/Zeo) and selected based on Zeocin resistance.

MIP/SP tumor xenografts = assay: Tumor xenografts of SPARC-overexpressing cells treated with chemotherapy; assay type: in vivo, NIH nude mice; conditions: for rate of tumor regression, MIP/SP versus parental MIP101 xenografts: FIG. 14
Method: (§3) Animal Studies—Tumor xenograft animal models were used to assess the effect of SPARC on tumor progression in-vivo. NIH nude mice (6 weeks old, Taconic Laboratories) were engrafted following subcutaneous injection of 2×10^6 cells into the left flank. Treatment regimens were initiated once the average tumor size was 50-75 mm^3 in size. Tumor measurements were performed using a hand-held caliper (Fisher) twice weekly and weight measurements were made concurrently until the completion of the study. Chemotherapy was provided using a 3-week cycle regimen for a total of 6 cycles: 5-FU 25 mg/kg or CPT-11 25 mg/kg intraperitoneal injections three times on week 1 of each cycle, followed by 2 weeks of treatment-free periods. Dosing schedule for SPARC(s) was 100 μL of SPARC(s) three times per week until the completion of the chemotherapy cycle.

MIP101 tumor xenografts = assay: MIP101 tumor xenograft animal model; assay type: in vivo, NIH nude mice; conditions: 5-FU alone, n=6
Method: (§4) Concentrated SPARC-containing supernatant [SPARC(s)]—MIP/SP cells were plated at 1×10^6 cells in […] in DMEM (10% FBS, 1% penicillin/streptomycin, 0.1% Zeocin) for 24 hrs. Cells were subsequently washed with PBS twice and incubated in serum-free VP-SFM medium supplemented with glutamine 4 mM (Invitrogen) for 72 hrs. This medium was concentrated from 500 ml to 2 ml using Centricon Filter units (Millipore) at 4° C. All media collected and processed by this method were used for subsequent animal studies.
as §3

[2] = system: MIP101 cells resistant to 5-FU (MIP-5FUR, MIP/5FU); assay: TUNEL assay of apoptosis in 5-FU resistant MIP101 cells; assay type: cell-based
Method: (§5) Cell Culture—The colorectal cell line MIP-101 was maintained in Dulbecco's modified Eagle's medium (DMEM) (Invitrogen) supplemented with 10% fetal bovine serum (FBS) (Invitrogen), 1% penicillin/streptomycin (Invitrogen) at 37° C. and 5% CO2. Resistant MIP101 cells were developed following long-term incubation with incremental concentrations of 5-fluorouracil (5-FU), irinotecan (CPT-11), cisplatin (CIS), and etoposide (ETO). Stable MIP101 cells transduced with SPARC (MIP/SP) were maintained in DMEM supplemented with 10% FBS, 1% penicillin/streptomycin, and 0.1% Zeocin at 37° C. and 5% CO2.
as §1, with “For the assessment of apoptosis following exogenous SPARC (Haematologic Technologies Inc), cells were incubated with SPARC 5 μg/ml for 24 hrs followed by a 12-hr exposure to 5-FU 1000 μM.” left out

MIP/5FU tumor xenografts = assay: MIP/5FU tumor xenograft animal model; assay type: in vivo, NIH nude mice; conditions: 5-FU alone (FIG. 18), n=6
Method: as §4, §3

parental MIP101 cells = assay: TUNEL assay of apoptosis in parental MIP101 cells; assay type: cell-based
Method: as §5
as §1, with “For the assessment of apoptosis following exogenous SPARC (Haematologic Technologies Inc), cells were incubated with SPARC 5 μg/ml for 24 hrs followed by a 12-hr exposure to 5-FU 1000 μM.” left out

MIP/SP cells [3] = assay: Colony forming (clonogenic) assay, SPARC-overexpressing cells versus control; assay type: cell-based; conditions: increasing concentrations of chemotherapy (FIG. 21B)
Method: as §2, with “resistance. Colony forming Assay—For clonogenic cell survival studies, MIP101 parental cells and MIP/SP cells were plated at 1,000 cells/plate in 48-well plates and incubated with increasing concentrations of 5-FU (0, 10 μM, 100 μM, 1000 μM), CPT-11 (0, 1 μM, 10 μM, 100 μM), or etoposide (0, 10 μM, 100 μM, 1000 μM) for 4 days. Cells were then washed with PBS and incubated in fresh medium containing the appropriate concentrations of chemotherapy for an additional 7 days. Each well was stained with crystal violet and the colonies with more than 50 cells were counted. The number of colonies formed in the treated group was calculated based on the colonies formed from the control, untreated cells.” for “resistance.”

## O=c1[nH]cc(F)c(=O)[nH]1 [5-FU, 5-fluorouracil]
MIP/SP cells [1]
  cells undergoing apoptosis, MIP/SP versus MIP/Zeo: Greater number
MIP/SP tumor xenografts
  rate of tumor regression, MIP/SP versus parental MIP101 xenografts: more rapid rate of tumor regression
MIP/SP tumor xenografts; representative animals, 2 cycles of 5-FU, by 23 days post-transplant
  remission of MIP-SPARC xenograft: complete remission
MIP101 tumor xenografts; by 42 days post-treatment (FIG. 17)
  complete tumor regression: not observed
MIP101 tumor xenografts; by 84 days post-treatment (FIG. 16)
  complete tumor regression: not observed
[2]; MIP-5FUR cells, 5-FU 500 uM
  apoptosis (TUNEL): could not be triggered to undergo apoptosis
[2]; resistant phenotype (MIP/5FU), 5-FU 1000 uM (FIG. 21A)
  apoptosis (TUNEL stain): lack of apoptosis
MIP/5FU tumor xenografts
  tumor growth: rapid tumor growth continued
Parental MIP101 cells; parental sensitive MIP101 cells, 5-FU at a similar concentration (500 uM)
  apoptosis (TUNEL): a significant number of cells from the parental, sensitive cell line underwent apoptosis
Parental MIP101 cells; sensitive MIP101 cells, 5-FU 1000 uM (FIG. 21A)
  apoptosis (TUNEL stain): positively stained cells
MIP/SP cells [3]
  cell colonies, MIP/SP versus MIP/Zeo: fewer cell colonies of MIP/SP cells

## CCc1c2c(nc3ccc(OC(=O)N4CCC(N5CCCCC5)CC4)cc13)-c1cc3c(c(=O)n1C2)COC(=O)[C@]3(O)CC [CPT-11, irinotecan]
MIP/SP cells [1]
  cells undergoing apoptosis, MIP/SP versus MIP/Zeo: Greater number
MIP/SP tumor xenografts
  rate of tumor regression, MIP/SP versus parental MIP101 xenografts: more rapid rate of tumor regression
MIP/SP tumor xenografts; representative animals, 2 cycles of CPT-11
  tumor size versus parental MIP101 xenograft: significantly smaller tumors
MIP/SP cells [3]
  cell colonies, MIP/SP versus MIP/Zeo: fewer cell colonies of MIP/SP cells

## N.N.[Cl][Pt][Cl] [cisplatin]
MIP/SP cells [1]
  cells undergoing apoptosis, MIP/SP versus MIP/Zeo: Greater number

## COc1cc([C@@H]2c3cc4c(cc3[C@@H](O[C@@H]3O[C@@H]5CO[C@@H](C)O[C@H]5[C@H](O)[C@H]3O)[C@H]3COC(=O)[C@H]23)OCO4)cc(OC)c1O [etoposide]
MIP/SP cells [1]
  cells undergoing apoptosis, MIP/SP versus MIP/Zeo: Greater number
MIP/SP cells [3]
  cell colonies, MIP/SP versus MIP/Zeo: fewer cell colonies of MIP/SP cells

B1: SPARC: Secreted protein acidic and rich in cystein; exogenous SPARC polypeptide (Haematologic Technologies Inc) (protein, UniProt P09486 18-303, looked up)
SPARC: APQQEALPDETEVVEETVAEVTEVSVGANPVQVEVGEFDDGAEETEEEVVAENPCQNHHCKHGKVCELDENNTPMCVCQDPTSCPAPIGEFEKVCSNDNKTFDSSCHFFATKCTLEGTKKGHKLHLDYIGPCKYIPPCLDSELTEFPLRMRDWLKNVLVTLYERDEDNNLLTEKQKLRVKKIHENEKRLEAGDHPVELLARDFEKNYNMYIFPVHWQFGQLDQHPIDGYLSHTELAPLRAPLIPMEHCTTRFFETCDLDNDKYIALDEWAGCFGIKQKDIDKDLVI
[2]; MIP/5FU cells, 24 hr SPARC 5 ug/ml, then 5-FU 1000 uM (FIG. 21A)
  sensitivity to 5-FU (TUNEL-positive cells): once again became sensitive to 5-FU
[2]; resistant cells, exogenous SPARC alone without chemotherapy
  apoptosis (TUNEL), SPARC alone: did not induce apoptosis
[2]; resistant clones, SPARC 24-hr incubation followed by 12-hr exposure to a chemotherapeutic agent
  reversal of resistant phenotype (apoptotic cells by TUNEL): sufficient in reversing the resistant phenotype
Parental MIP101 cells; parental MIP 101 cells, exogenous SPARC alone without chemotherapy
  apoptosis (TUNEL), SPARC alone: did not induce apoptosis
